Values quoted from earlier work, collected in patent US20050233005A1, “Use of glycosaminoglycans and zinc derivatives for insect bites, stings and the like” (priority 2004, published 2005).

How the values were obtained:
[1] = tested on: pruritus caused by mosquito bites; conditions: administered prophylactically (Karppinen et al., 2002)
[2] = tested on: diabetic foot wounds; conditions: in wound dressings (Vazquez et al., 2003)
[3] = tested on: skin wound; conditions: topical application (Chen and Abatengelo, 1999)
[4] = topical applications and oral administration, animal models and humans (SCCNFP report, 2003)
[5] = tested on: porcine wounds; conditions: topical application (Tarnow et al., 1994; Agren et al., 2001)

CC(C)(C)c1ccc(C(=O)CCCN2CCC(OC(c3ccccc3)c3ccccc3)CC2)cc1 [ebastine]
pruritus caused by mosquito bites [1]: significantly decrease

Hyaluronic acid [HA]
healing of diabetic foot wounds [2]: beneficial | skin wound healing [3]: accelerate

O=S(=O)([O-])[O-].[Zn+2] [zinc sulphate]
toxicity [4]: little or no toxicity

O=C(O)COCCN1CCN(C(c2ccccc2)c2ccc(Cl)cc2)CC1 (stereo not shown) [cetirizine]
pruritus caused by mosquito bites [1]: significantly decrease

[O]=[Zn] [zinc oxide]
release of growth factors [5]: enhanced | toxicity [4]: little or no toxicity
